In patent US6518287B2, “Substituted imidazoles as dual histamine H1 and H3 agonists or antagonists” (Schering Corporation, priority 2000, dated 2003):

Assays:
H3 receptors = target: T1, H3 receptors (Cavia porcellus, UniProt Q9JI35); experiment: H3-Receptor Binding Assay (guinea pig brain membranes); details: HCl salt of the indicated compound, 3 nM [3H]R-α-methyl histamine or [3H]Nα-methyl histamine, read-out: H3 Ave Ki
T1 construct: The source of the H3 receptors in this experiment was guinea pig brain; from tissue; host or cells: guinea pig brain membranes
T1 sequence (Q9JI35 whole entry): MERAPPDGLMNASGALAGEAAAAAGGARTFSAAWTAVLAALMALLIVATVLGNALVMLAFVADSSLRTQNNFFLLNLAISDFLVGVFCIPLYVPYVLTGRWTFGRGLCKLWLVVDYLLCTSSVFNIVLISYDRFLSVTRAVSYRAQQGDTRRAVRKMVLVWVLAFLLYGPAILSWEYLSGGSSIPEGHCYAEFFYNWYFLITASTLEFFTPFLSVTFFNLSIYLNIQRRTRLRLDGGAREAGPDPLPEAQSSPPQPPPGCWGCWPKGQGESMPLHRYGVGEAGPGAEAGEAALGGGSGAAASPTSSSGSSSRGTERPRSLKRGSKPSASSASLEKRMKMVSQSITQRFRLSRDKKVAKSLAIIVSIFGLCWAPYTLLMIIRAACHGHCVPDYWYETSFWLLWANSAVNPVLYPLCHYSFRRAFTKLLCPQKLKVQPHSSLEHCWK
Protocol: General Procedure for H3-Receptor Binding Assay
The source of the H3 receptors in this experiment was guinea pig brain. The animals weighed 400-600 g. The brain tissue was homogenized with a solution of 50 mM Tris, pH 7.5. The final concentration of tissue in the homogenization buffer was 10% w/v. The homogenates were centrifuged at 1,000×g for 10 min. in order to remove clumps of tissue and debris. The resulting supernatants were then centrifuged at 50,000×g for 20 min. in order to sediment the membranes, which were next washed three times in homogenization buffer (50,000×g for 20 min. each). The membranes were frozen and stored at −70° C. until needed.
All compounds to be tested were dissolved in DMSO and then diluted into the binding buffer (50 mM Tris, pH 7.5) such that the final concentration was 2 μg/ml with 0.1% DMSO. Membranes were then added (400 μg of protein) to the reaction tubes. The reaction was started by the addition of 3 nM [^3H]R-α-methyl histamine (8.8 Ci/mmol) or 3 nM [^3H]N^α-methyl histamine (80 Ci/mmol) and continued under incubation at 30° C. for 30 min. Bound ligand was separated from unbound ligand by filtration, and the amount of radioactive ligand bound to the membranes was quantitated by liquid scintillation spectrometry.

Histamine H1 receptor = target: T2, Histamine H1 receptor (Rattus norvegicus, UniProt P31390); experiment: H1-Receptor Binding Assay (rat brain membranes, [3H]pyrilamine); details: HCl salt of the indicated compound, male Sprague-Dawley rat brain membranes, Cheng-Prusoff, read-out: H1 Ave Ki
T2 construct: The tissue source was male Sprague-Dawley rat brain; tissue Rockland Corporation, Gilbertsville, Pa; host or cells: male Sprague-Dawley rat brain membranes
T2 sequence (P31390 whole entry): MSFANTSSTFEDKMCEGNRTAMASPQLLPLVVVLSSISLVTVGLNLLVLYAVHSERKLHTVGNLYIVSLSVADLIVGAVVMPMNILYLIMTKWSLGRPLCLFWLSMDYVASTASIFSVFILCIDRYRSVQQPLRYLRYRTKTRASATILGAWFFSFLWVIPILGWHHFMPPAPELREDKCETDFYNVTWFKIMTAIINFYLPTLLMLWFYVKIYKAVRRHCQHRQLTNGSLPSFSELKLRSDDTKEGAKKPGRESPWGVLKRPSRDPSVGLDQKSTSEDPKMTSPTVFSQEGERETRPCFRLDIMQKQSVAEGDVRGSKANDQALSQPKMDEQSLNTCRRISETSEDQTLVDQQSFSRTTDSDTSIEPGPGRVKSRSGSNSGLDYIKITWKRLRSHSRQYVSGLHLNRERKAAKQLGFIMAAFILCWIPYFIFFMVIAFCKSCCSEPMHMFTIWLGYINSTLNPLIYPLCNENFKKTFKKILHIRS
Text: General Procedure for H1-Receptor Binding Assay
The procedure used was based on that disclosed in V. T. Tran, R. S. L. Chang, and S. hr. Snyder, “Histamine H1 receptors identified in mammalian brain membranes with [H-3]mepyramine”, Proc. Natl. Acad. Sci. U.S.A 75 (1978) 6290-6294.
I. Tissue Preparation Protocol for Histamine H1 Receptor Binding Assay
1. The tissue source was male Sprague-Dawley rat brain. These were purchased stripped and frozen (available from Rockland Corporation, Gilbertsville, Pa.). The buffer used was ice-cold 50 mM Tris-HCl, pH 7.5. (The pH was determined at 25° C.)
2. The brains were spread out on plastic wrap on the benchtop and allowed to thaw for 10-15 min. After this, everything was kept ice-cold.
3. Two brains were put in each 50 mL round bottom centrifuge tube and 25 mL of buffer was added. Then they were broken up with a Polytron (from Brinkmann Instruments, Westbury, N.Y.) equipped with a PT-10 tip at setting 6 for 30 sec.
4. The volume in the tube was brought up to 45 mL and mixed and the particulate material was centrifuged at 1000×g (3000 rpm, SS-34 rotor) for 10 min to remove nuclei and unbroken cells.
5. Pellets were discarded and the supernatants were centrifuged 10 min at 50,000×g (20,000 rpm, SS-34 rotor).
6. The high-speed pellets were resuspended in a volume of Tris buffer equal to the original (4 mL), the contents of all tubes were pooled, and a sample was taken for BCA protein assay. The material was aliquotted, 45 mL per round-bottom tube, and the resuspension was recentrifuged. The yield of protein was approximately 20 mg/brain, so there was about 40 mg of protein per tube.
7. Pellets were frozen at −80° C.
II. H1 Histamine Receptor Binding Assay
1. FDCL and comparative compounds for assay were independently solubilized at 1 mg/ml DMSO by vortexing, or if necessary by sonication. The first dilution, 100-fold, was made in 50 mM Tris-HCl, pH 7.5, at room temperature. The three or four subsequent ten-fold serial dilutions were made in 1% DMSO/50 mM Tris-HCl, pH 7.5. Drug solutions and assay plates were kept at room temperature during the course of the assay set up.
2. Test compounds were assayed at four or five concentrations: 1, 0.1, 0.01, 0.001, and 0.0001 μg/ml. Twenty μl of drug solution was pipeted into each of three wells.
3. [^3H]Pyrilamine was diluted approximately 2000-fold with ice-cold […] Tris-HCl, pH 7.5 (to a working concentration of 20-25 nM), and put on ice.
4. A frozen tissue pellet was thawed in a 25° C. water bath, resuspended in 50 mM Tris-HCl, pH 7.5, at 1.7-2 mg/ml by brief break-up on the Polytron, and put on ice.
5. Twenty μl of diluted [^3H]pyrilamine was added to each well.
6. One hundred fifty μl of tissue suspension was added to each well.
7. The top of the plate was covered and it was placed in a 25° C. shaking water bath (about 60 oscillations/min) for 30 min.
8. Samples were filtered on a Tomtec Mach 2 harvester (available from Tomtec Corporation, Orange, Conn.) through a GF/B filter mat (from Wallac, Inc., Gaithersburg, Md.) presoaked in 0.3% polyethylenimine. Each sample was thrice washed with ice-cold 50 mM Tris-HCl, pH 7.5 dried 20 sec on the Tomtec, and dried 3-4 min in a microwave oven on a paper towel. The filter was impregnated with MELTILEX brand wax scintillant (from Wallac Corporation) and counted on a Betaplate scintillation counter (from Wallac Corporation).
9. Specific binding was determined as the difference between total and nonspecific binding. The percent inhibition in the presence of inhibitor or standard was determined using the formula:
[1-(sample binding-nonspecific binding)/specific binding]×100
For compounds that inhibit more than 50% at 1 μg/ml, an IC50 value was interpolated from proximate concentrations. […]

| Ki (H3 receptors) | Ki (Histamine H1 receptor) | SMILES |
| --- | --- | --- |
| 8 nM | – | N=C(CC(c1ccc(Cl)cc1)c1ccccn1)NCCc1c[nH]cn1 (stereo not shown) |
| 16 nM | – | O=C(CC(c1ccc(Cl)cc1)c1ccccn1)NCCc1c[nH]cn1 (stereo not shown) |
| 1 nM | – | CN(CCc1c[nH]cn1)C(=O)CC(c1ccc(Cl)cc1)c1ccccn1 (stereo not shown) |
| 510 nM | – | O=C(CCc1c[nH]cn1)NCCC(c1ccc(Cl)cc1)c1ccccn1 (stereo not shown) |
| 260 nM | 1000 nM | CN(CCC(c1ccc(Cl)cc1)c1ccccn1)C(=O)CCc1c[nH]cn1 (stereo not shown) |
| 10 nM | 254 nM | Clc1ccc(C(CCNCCCCc2c[nH]cn2)c2ccccn2)cc1 (stereo not shown) |
| 2 nM | – | Clc1ccc(C(NCCCCc2c[nH]cn2)c2ccc(Cl)cc2)cc1 |
| 36 nM | – | O=C(CC(c1ccccc1)c1ccccc1)NCCCCc1c[nH]cn1 |
| 260 nM | – | O=C(NCCC(c1ccc(Cl)cc1)c1ccccn1)OCCc1c[nH]cn1 (stereo not shown) |

Second part, the compound before the results:

| SMILES | Ki (H3 receptors) | Ki (Histamine H1 receptor) |
| --- | --- | --- |
| N=C(CCCc1c[nH]cn1)NCCC(c1ccc(Cl)cc1)c1ccccn1 (stereo not shown) | 29 nM | 201 nM |
| O=C(CC(c1ccc(Cl)cc1)c1ccccn1)NCCCCc1c[nH]cn1 (stereo not shown) | 0.8 nM | – |
| Clc1ccc(C(CCNCCc2c[nH]cn2)c2ccccn2)cc1 (stereo not shown) | 56 nM | 600 nM |
| CN(CCCCc1c[nH]cn1)C(=O)CC(c1ccc(Cl)cc1)c1ccccn1 (stereo not shown) | 6.5 nM | – |
| Clc1ccc(C(CCNCCCc2c[nH]cn2)c2ccccn2)cc1 (stereo not shown) | 240 nM | – |
| CN(CCCc1c[nH]cn1)CCC(c1ccc(Cl)cc1)c1ccccn1 (stereo not shown) | 120 nM | 10 nM |
| Clc1ccc(C(CCN(CCCCc2c[nH]cn2)CCCCc2c[nH]cn2)c2ccccn2)cc1 (stereo not shown) | 23 nM | 83.5 nM |
| Clc1ccc(C(NCCCCc2c[nH]cn2)c2ccccc2)cc1 (stereo not shown) | 6 nM | – |
| CN(CCCCc1c[nH]cn1)CCC(c1ccc(Cl)cc1)c1ccccn1 (stereo not shown) | 15 nM | 7 nM |
| C[N+](C)(CCCCc1c[nH]cn1)CCC(c1ccc(Cl)cc1)c1ccccn1 (stereo not shown) | 160 nM | 120 nM |
| O=C(NCCCCc1c[nH]cn1)C(c1ccc(Cl)cc1)c1ccc(Cl)cc1 | 33.5 nM | – |
| O=C(/C=C(\c1ccc(Cl)cc1)c1ccccn1)NCCc1c[nH]cn1 | 37 nM | – |
| O=C(CC(c1ccc(Cl)cc1)c1cccc[n+]1[O-])NCCCCc1c[nH]cn1 (stereo not shown) | 8.5 nM | – |
| O=C(CC(c1ccc(Br)cc1)c1ccccn1)NCCCCc1c[nH]cn1 (stereo not shown) | 50 nM | – |
